Data as given in the supplement of paper PMC10307832.

What was measured:
Experiment in all cases: relative viability (nuclei count vs DMSO), 5 days (fraction); higher = more cells survive
IPA-3 + Navitoclax = compound: C1=CC=C2C(=C1)C=CC(=C2SSC3=C(C=CC4=CC=CC=C43)O)O [IPA-3] + CC1(C)CCC(c2ccc(Cl)cc2)=C(CN2CCN(c3ccc(C(=O)NS(=O)(=O)c4ccc(N[C@H](CCN5CCOCC5)CSc5ccccc5)c(S(=O)(=O)C(F)(F)F)c4)cc3)CC2)C1 [Navitoclax] (partner 0.5 µM)
How it was run: (§1)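 After 5 days of treatment, lung cancer cells in 1536-well plates were fixed and stained in a single step (final 0.05% Triton X-100, 1% formaldehyde, 1 ug/ml Hoechst) and their nuclei counted on 4× images. Treatment had been applied by pin tool the day after seeding as one drug alone or as a fixed anchor-drug dose with five library-drug doses (not always all listed) in √10 steps. Relative viability is the nuclei count of treated wells divided by that of vehicle wells, and values are medians of duplicate plates.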

[1] = compound: Cc1ccc(-n2nc(C(C)(C)C)cc2NC(=O)Nc2ccc(OCCN3CCOCC3)c3ccccc23)cc1 [Doramapimod] + CC(=O)c1c(C)c2cnc(Nc3ccc(N4CCNCC4)cn3)nc2n(C2CCCC2)c1=O [Palbociclib] (partner 0.5 µM)
How it was run: as §1

Doramapimod + Navitoclax = compound: Cc1ccc(-n2nc(C(C)(C)C)cc2NC(=O)Nc2ccc(OCCN3CCOCC3)c3ccccc23)cc1 [Doramapimod] + CC1(C)CCC(c2ccc(Cl)cc2)=C(CN2CCN(c3ccc(C(=O)NS(=O)(=O)c4ccc(N[C@H](CCN5CCOCC5)CSc5ccccc5)c(S(=O)(=O)C(F)(F)F)c4)cc3)CC2)C1 [Navitoclax] (partner 0.5 µM)
How it was run: as §1

RAF265 + Pemetrexed = compound: Cn1c(Nc2ccc(C(F)(F)F)cc2)nc2cc(Oc3ccnc(-c4ncc(C(F)(F)F)[nH]4)c3)ccc21 [RAF265] + Nc1nc2[nH]cc(CCc3ccc(C(=O)N[C@@H](CCC(=O)O)C(=O)O)cc3)c2c(=O)[nH]1 [Pemetrexed] (partner 0.2 µM)
How it was run: as §1

Cell Line | relative viability (IPA-3 + Navitoclax; first compound 0.2 µM) | relative viability (IPA-3 + Navitoclax; first compound 0.6325 µM) | relative viability (IPA-3 + Navitoclax; first compound 2 µM) | relative viability (IPA-3 + Navitoclax; first compound 6.325 µM) | relative viability (IPA-3 + Navitoclax; first compound 20 µM) | relative viability ([1]; first compound 0.02 µM) | relative viability ([1]; first compound 0.06325 µM) | relative viability ([1]; first compound 0.2 µM) | relative viability ([1]; first compound 0.6325 µM) | relative viability ([1]; first compound 2 µM) | relative viability (Doramapimod + Navitoclax; first compound 0.02 µM) | relative viability (Doramapimod + Navitoclax; first compound 0.06325 µM) | relative viability (Doramapimod + Navitoclax; first compound 0.2 µM) | relative viability (Doramapimod + Navitoclax; first compound 0.6325 µM) | relative viability (Doramapimod + Navitoclax; first compound 2 µM) | relative viability (RAF265 + Pemetrexed; first compound 0.01 µM) | relative viability (RAF265 + Pemetrexed; first compound 0.03162 µM) | relative viability (RAF265 + Pemetrexed; first compound 0.1 µM) | relative viability (RAF265 + Pemetrexed; first compound 0.3162 µM) | relative viability (RAF265 + Pemetrexed; first compound 1 µM)
NCI-H23 | 1.14 | 0.709 | 0.858 | 0.991 | 1.1 | 0.458 | 0.485 | 0.482 | 0.52 | 0.568 | 0.905 | 0.794 | 0.763 | 0.882 | 0.832 | 0.633 | 0.573 | 0.53 | 0.351 | 0.366
NCI-H1792 | 0.939 | 0.665 | 0.55 | 0.675 | 0.825 | 0.701 | 0.645 | 0.598 | 0.596 | 0.546 | 0.601 | 0.809 | 0.672 | 0.617 | 0.577 | 0.808 | 0.517 | 0.539 | 0.0889 | 0.118
NCI-H460 | 1.45 | 0.968 | 1.45 | 1.04 | 1.09 | 0.197 | 0.195 | 0.208 | 0.279 | 0.141 | 1.12 | 1.01 | 1.14 | 1.13 | 1.01 | 0.0601 | 0.0679 | 0.0652 | 0.0628 | 0.0612
HCC-366 | 1.18 | 1.01 | 1.19 | 1.03 | 1.18 | 0.397 | 0.379 | 0.373 | 0.412 | 0.351 | 1.05 | 1 | 1.03 | 0.978 | 0.901 | 0.153 | 0.146 | 0.185 | 0.208 | 0.132
NCI-H2085 | 1.15 | 0.985 | 1.25 | 1.14 | 1.18 | 0.525 | 0.527 | 0.5 | 0.52 | 0.529 | 1.22 | 1.05 | 1.07 | 1.3 | 1.2 | 1.09 | 0.768 | 0.938 | 0.806 | 0.903
PC-14 | 1.09 | 1.03 | 0.994 | 0.988 | 0.974 | 0.552 | 0.594 | 0.487 | 0.552 | 0.508 | 1.02 | 1.02 | 0.935 | 1.09 | 0.799 | 0.115 | 0.138 | 0.144 |  | 0.158
HOP-62 | 1.08 | 0.9 | 1 | 0.943 | 1.34 | 0.369 | 0.483 | 0.497 | 0.524 | 0.485 | 1.1 | 1.1 | 1.17 | 1.04 | 1.05 | 0.261 | 0.306 | 0.267 | 0.246 | 0.245
NCI-H2087 | 1.15 | 0.863 | 0.837 | 0.859 | 0.926 | 0.237 | 0.215 | 0.293 | 0.27 | 0.219 | 0.955 | 0.98 | 0.933 | 1.1 | 0.888 | 0.599 | 0.669 | 0.549 | 0.649 | 0.543
NCI-H1793 | 0.518 | 0.37 | 0.395 | 0.44 | 0.594 | 0.317 | 0.293 | 0.283 | 0.287 | 0.273 | 0.545 | 0.303 | 0.378 | 0.416 | 0.502 | 1.07 | 0.774 | 0.553 | 0.234 | 0.412
PC-3 [JPC-3] | 0.813 | 0.691 | 0.823 | 0.803 | 0.842 | 0.588 | 0.549 | 0.549 | 0.571 | 0.565 | 0.923 | 0.767 | 0.737 | 0.869 | 0.723 | 1.17 | 1.11 | 1.24 | 0.42 | 0.621
H3255 | 0.543 | 0.523 | 0.446 | 0.566 | 0.603 | 0.334 | 0.302 | 0.318 | 0.292 | 0.345 | 0.531 | 0.586 | 0.553 | 0.636 | 0.479 | 0.569 | 0.609 | 0.54 |  | 0.569
EMC-BAC-2 | 1.38 | 1.11 | 1.16 | 1.09 | 1.32 | 0.512 | 0.501 | 0.508 | 0.503 | 0.465 | 1.18 | 1.17 | 1.16 | 1.25 | 0.99 | 0.432 | 0.406 | 0.427 | 0.347 | 0.258
CAL-12T | 1.41 | 1.21 | 1.39 | 1.19 | 1.23 | 0.413 | 0.45 | 0.421 | 0.434 | 0.511 | 1.14 | 1.14 | 1.14 | 1.48 | 1.03 | 1.21 | 0.925 | 1.13 | 0.978 | 0.661
SK-MES-1 | 1.26 | 1.12 | 1.3 |  | 1.04 | 0.316 | 0.288 | 0.341 | 0.316 | 0.269 | 1.16 | 1.25 | 1.23 | 1.25 | 0.99 | 0.941 | 0.698 | 0.48 | 0.366 | 0.326
NCI-H1355 | 1.08 | 0.867 | 0.999 | 1.03 | 1.09 | 0.412 | 0.373 | 0.413 | 0.385 | 0.368 | 0.943 | 0.947 | 0.956 | 0.923 | 0.867 | 1.05 | 1.02 | 0.972 | 0.96 | 0.714
